# In patent EP3636645A1, “PROCESS FOR THE PREPARATION OF SULFUR-SUBSTITUTED PYRIDINE DERIVATIVES” (Bayer Aktiengesellschaft, priority 2018, dated 2020):
# Experiment: physchem
# Format: physicochemical
# Description: Die Bestimmung der logP-Werte erfolgte gemäß EEC Directive 79/831 Annex V.A8 durch HPLC (High Performance Liquid Chromatography) an einer Phasenumkehrsäule (C18) mit Hilfe folgender Methoden: Der logP[a] Wert wird durch LC-UV Messung im sauren Bereich bestimmt, mit 0,9 mL/L Ameisensäure in Wasser und 1,0 mL/L Ameisensäure in Acetonitril als Eluenten (linearer Gradient von 10% Acetonitrile bis 95% Acetonitril).
# Der logP[n] Wert wird durch LC-UV Messung im neutralen Bereich bestimmt, mit 79 mg/L Ammoniumcarbonat in Wasser und Acetonitril als Eluenten (linearer Gradient von 10% Acetonitril bis 95% Acetonitril).
# Die Kalibrierung wurde mit einer homologen Reihe geradkettiger Alkan-2-one (mit 3 bis 16 Kohlenstoffatomen) mit bekannten logP Werten durchgeführt. Die Werte zwischen aufeinanderfolgender Alkanone werden durch lineare Regression bestimmt.
compound,measurement,setting,value
"Cn1c(-c2ncccc2SC(F)(F)F)nc2cc(C(F)(F)F)ncc21 [Beispiel 1, 3-Methyl-6-(trifluormethyl)-2-{3-[(trifluormethyl)sulfanyl]pyridin-2-yl}-3H-imidazo [4,5-c] pyridin]",chromatographic logP,"hplc c18, acidic formic acid",3
same,chromatographic logP,"hplc c18, ammonium carbonate",2.97
